Data as given in article PMC9866588, “Novel 7-Chloro-4-aminoquinoline-benzimidazole Hybrids as Inhibitors of Cancer Cells Growth: Synthesis, Antiproliferative Activity, in Silico ADME Predictions, and Docking” (Molecules, 2023).

Legend:
[1] = tested on: Raji (Burkitt lymphoma) cells; test: MTT antiproliferative assay, Raji; assay type: cell-based, human; conditions: Homo sapiens, Raji; 72 h, MTT, mean ± SD of three independent experiments
Protocol: (§1) The growth inhibition activity was assessed according to the slightly modified procedure performed at the National Cancer Institute, Developmental Therapeutics Program.
(§2) The examined compounds were dissolved in DMSO (1 × 10^−2 M). The experiments were carried out on seven human tumor cell lines and a normal cell line. The following cell lines were used: HeLa (human cervical adenocarcinoma; purchased from ATCC), CaCo-2 (human colorectal adenocarcinoma), MCF-7 (human breast adenocarcinoma), CCRF-CEM (human acute lymphoblastic leukemia), Hut78 (T-cell lymphoma), THP-1 (acute monocytic leukemia), Burkitt lymphoma (Raji), and MDCK1 (Madine–Darby canine kidney). The MDCK1 cells were used between 24 and 26 passages.
(§3) The adherent cells were cultured in Dulbecco’s modified Eagle medium—DMEM (Gibco, Termo Fisher Scientific Inc., Leicestershire, England, UK), supplemented with 10% heat-inactivated fetal bovine serum (FBS, Gibco, Termo Fisher Scientific Inc., Leicestershire, England, UK), 2 mM glutamine, and 100U/0.1mg penicillin/streptomycin. The cells in suspension were cultured in RPMI 1640 (Gibco, Termo Fisher Scientific Inc., Leicestershire, England, UK) medium, supplemented with 10% FBS (Gibco, Termo Fisher Scientific Inc., Leicestershire, England, UK), 2 mM glutamine, 1 mM sodium pyruvate, and 10 mM HEPES. The cells were grown in a humidified atmosphere under the conditions of 37 °C/5% of CO2 gas in the CO2 incubator (IGO 150 CELLlife^TM, JOUAN, Thermo Fisher Scientific, Waltham, MA, USA).
(§4) The adherent cells (HeLa, CaCo-2, MCF-7, and MDCK-1) were plated in 96-well flat bottom plates (Greiner, Frickenhausen, Austria) at a concentration of 2 × 10^4 cells/mL. The suspension cells (Raji, THP-1, CCRF-CEM and Hut78) were plated in 96-well microtiter plates (Sarstead, Newton, NC, USA) at a concentration of 1 × 10^5 cells/mL. Twenty-four hours later, the cells were treated with test agents in […] and incubated for a further 72 h. The working dilutions were freshly prepared on the day of testing. The solvent was also tested for eventual inhibitory activity by adjusting its concentration to be the same as in the working concentrations. After 72 h of incubation, the cell growth rate was evaluated by performing the MTT assay, which detects dehydrogenase activity in viable cells. For this purpose, upon completion of the incubation period, the growth medium was discarded and 50 μL of MTT was added to each well at a concentration of 5 mg/mL. After four hours of incubation at 37 °C, the water insoluble MTT-formazan crystals were dissolved in 150 μL of dimethyl-sulfoxide (DMSO) for the adherent cells and in 10% SDS with 0.01 mol/L HCl for the cells grown in suspension. The absorbance (OD, optical density) was measured on a microplate reader (iMark, BIO RAD, Hercules, CA, USA) at 595 nm.
(§5) The percentage of live cells was calculated as follows: % = OD (sample) − OD (background)/OD (control) − OD (background) × 100.
(§6) The optical density (OD) of the background for the adherent cells is the OD of the MTT solution and DMSO; the OD (background) for the suspension cells is the OD of the culture medium with MTT and 10% SDS with 0.01 mol/L HCl; the OD (control) is the OD of the cells grown without the tested compounds.
(§7) The calculation of the GI50 value curves and QC analysis was performed using the Excel tools and GraphPadPrism software (La Jolla, CA, USA), v. 5.03. Briefly, individual concentration effect curves are generated by plotting the logarithm of the concentration of the tested compounds (X) vs. the corresponding percent inhibition values (Y) using the least squares fit. The best-fit GI50 values are calculated using log (inhibitor) versus normalized response—variable slope equation, where Y Ľ 100/(1 ţ 10 ((LogIC50 _ X) × HillSlope)). The QC criteria parameters (Z0, S:B, R2, HillSlope) were checked for every GI50 curve.

[2] = tested on: CaCo-2 (human colorectal adenocarcinoma) cells; test: MTT antiproliferative assay, CaCo-2; assay type: cell-based; conditions: 72 h, mean ± SD of three independent experiments
Protocol: as §1, §2, §3, §4, §5, §6, §7

HuT78 cells [3] = test: Mitochondrial membrane potential (∆Ψm), TMRE flow cytometry; assay type: cell-based, human; conditions: HuT78, 5 μM, 24 h
Protocol: Changes in the (∆Ψm) were measured using TMRE (tetramethylrhodamine, ethyl ester and perchlorate) dye. In brief, the tested cells (HuT 78) were plated in 6-well plates at a concentration of 5 × 10^5 cells per well and treated with 5 μM of the compounds 5d and 12d. After 24 h of treatment, the cells were collected, centrifuged for 6 min at 1100 rpm, and stained with 200 nM of TMRE dye according to the kit protocol (TMRE Mitochondrial Membrane Potential Assay Kit, abcam, Cambridge, UK). The positive control cells were treated with 20 μM FCCP (carbonyl cyanide-p-trifluoromethoxyphenylhydrazone) for 10 min. The cells were analyzed by flow cytometry (BD FACSCalibur, Becton Dickinson, San Jose, CA, USA) and FlowJo software (FlowJo, LLC, Ashland, OR, USA).

HuT78 cells [4] = test: Flow cytometry analysis of cell cycle, HuT78; assay type: cell-based, human; conditions: HuT78, 5 μM, 24 h
Protocol: To analyze the effects of the selected compounds (5d, 8d, and 12d) on the cell cycle of the HuT78 and THP-1 cells, the cells were seeded in 6-well plates (5 × 10^5 cells per well) and treated for 24 h with the selected compounds 5d and 12d (5 μM). The cells were then collected and fixed in cold 70% ethanol. The fixed samples were stained with 15 µg/mL of propidium iodide (PI) at room temperature and analyzed by flow cytometry (FACS Canto II, BD Biosciences). The results were analyzed using FlowLogic software.
One-way ANOVA analysis of variance was performed in the MedCalc statistical program for the analysis of the cell cycle. p-values of less than 0.05 were considered to be statistically significant.

[5] = tested on: normal (MDCK1) and tumor cell lines; test: MTT antiproliferative assay, ranges stated over several cell lines; assay type: cell-based; conditions: MDCK1; range over tumor cell lines; read-out: GI50 range, tumor cell lines
Protocol: as §1, §2, §3, §4, §5, §6, §7

[6] = as above; assay type: cell-based; conditions: human (tumor cell lines) and dog (MDCK1); abstract, range over cell lines; read-out: GI50 range (strong cytotoxic activity)
Protocol: as §1, §2, §3, §4, §5, §6, §7

Clc1ccc2c(Nc3cccc(-c4nc5ccccc5[nH]4)c3)ccnc2c1 [Compound 5d, N-(3-(1H-benzo[d]imidazol-2-yl)phenyl)-7-chloroquinolin-4-amine]
GI50 [1]: 4300 ± 1200 nM
GI50 [2]: 1000 ± 100 nM
cells with mitochondrial membrane disruption / change in ∆Ψm (HuT78 cells [3]): 23.9%
proportion of polyploid giant cancer cells (HuT78 cells [4]): increased proportion
decrease in G0/G1 phase (HuT78 cells [4]; vs control): 5 times
increase in G2/M phase (HuT78 cells [4]; vs control): 2 times
increase of cells in subG0/G1 phase (HuT78 cells [4]; vs control): 13 times
GI50 [5]: 400 to 15600 nM
GI50 at 72 h [6]: 400 to 8000 nM
